Source: PubChem BioAssay AID2060897 (Molecular Pharmacology Branch, DTP, NCI, 2025)
One block for each molecule: values may come before it.

System: 966289-007-R4-J1-PDC complex spheroid viability
Assay: Anticancer human tumor 966289-007-R4-J1-PDC patient-derived pancreatic adenocarcinoma cell line growth inhibition [RAS]
Details: for viability, T/C: stronger effect = lower value
Method in brief: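 Multi-cell-type spheroids: tumor cells plus HUVEC endothelial cells and mesenchymal stem cells. RAS-pathway inhibitors were combined with targeted agents, each dosed in half-log steps down from clinical Cmax, or from 10 microM when Cmax was unknown.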

[1] = curve of first compound, second compound 0.0316 µM
[2] = curve of first compound, second compound 0.1 µM
[3] = curve of first compound, second compound 0.316 µM
[4] = curve of first compound, second compound 1 µM
[5] = second compound 0.0316 µM, first compound 0.0316 µM
[6] = second compound 0.0316 µM, first compound 0.1 µM
[7] = second compound 0.0316 µM, first compound 0.316 µM
[8] = second compound 0.0316 µM, first compound 1 µM
[9] = second compound 0.1 µM, first compound 0.0316 µM
[10] = second compound 0.1 µM, first compound 0.1 µM
[11] = second compound 0.1 µM, first compound 0.316 µM
[12] = second compound 0.1 µM, first compound 1 µM
[13] = second compound 0.316 µM, first compound 0.0316 µM
[14] = second compound 0.316 µM, first compound 0.1 µM
[15] = second compound 0.316 µM, first compound 0.316 µM
[16] = second compound 0.316 µM, first compound 1 µM
[17] = second compound 1 µM, first compound 0.0316 µM
[18] = second compound 1 µM, first compound 0.1 µM
[19] = second compound 1 µM, first compound 0.316 µM
[20] = second compound 1 µM, first compound 1 µM
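Also: spheroids exposed to agents for one week before readout.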
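For viability, T/C in this document: percent viability relative to DMSO vehicle control wells as 100%.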

IC50 [1]: > 10 µM
IC50 [2]: > 10 µM
IC50 [3]: > 10 µM
IC50 [4]: > 10 µM
IC50 (curve of first compound, second compound 3.16 µM): > 10 µM
IC50 (curve of first compound, second compound 10 µM): > 10 µM
SMILES: Cc1nc(N2CCC3(CC2)COC(C)C3N)c(CO)nc1Sc1ccnc(N)c1Cl (configuration not stated) + C#Cc1c(F)ccc2cc(O)cc(-c3ncc4c(N5CC6CCC(C5)N6)nc(OCC56CCCN5CC(F)C6)nc4c3F)c12
viability, T/C [5]: 107%
viability, T/C [6]: 92.5%
viability, T/C [7]: 111%
viability, T/C [8]: 80.5%
viability, T/C (second compound 0.0316 µM, first compound 3.16 µM): 102%
viability, T/C (second compound 0.0316 µM, first compound 10 µM): 92%
viability, T/C [9]: 107%
viability, T/C [10]: 94.7%
viability, T/C [11]: 103%
viability, T/C [12]: 92.6%
viability, T/C (second compound 0.1 µM, first compound 3.16 µM): 95.1%
viability, T/C (second compound 0.1 µM, first compound 10 µM): 90.9%
viability, T/C [13]: 91%
viability, T/C [14]: 114%
viability, T/C [15]: 115%
viability, T/C [16]: 115%
viability, T/C (second compound 0.316 µM, first compound 3.16 µM): 93.5%
viability, T/C (second compound 0.316 µM, first compound 10 µM): 91.5%
viability, T/C [17]: 93.1%
viability, T/C [18]: 112%
viability, T/C [19]: 113%
viability, T/C [20]: 107%
viability, T/C (second compound 1 µM, first compound 3.16 µM): 97.8%
viability, T/C (second compound 1 µM, first compound 10 µM): 87.3%
viability, T/C (second compound 3.16 µM, first compound 0.0316 µM): 104%
viability, T/C (second compound 3.16 µM, first compound 0.1 µM): 104%
viability, T/C (second compound 3.16 µM, first compound 0.316 µM): 113%
viability, T/C (second compound 3.16 µM, first compound 1 µM): 88.8%
viability, T/C (second compound 3.16 µM, first compound 3.16 µM): 88.2%
viability, T/C (second compound 3.16 µM, first compound 10 µM): 98%
viability, T/C (second compound 10 µM, first compound 0.0316 µM): 91.8%
viability, T/C (second compound 10 µM, first compound 0.1 µM): 97.1%
viability, T/C (second compound 10 µM, first compound 0.316 µM): 100%
viability, T/C (second compound 10 µM, first compound 1 µM): 89.8%
viability, T/C (second compound 10 µM, first compound 3.16 µM): 95.2%
viability, T/C (second compound 10 µM, first compound 10 µM): 85.5%

IC50 (curve of compound): 145 nM [middle of 4 runs]
SMILES: CC1(O)CCCC1n1c(=O)c(C(F)F)cc2cnc(NC3CCN(S(C)(=O)=O)CC3)nc21 (configuration not stated)
viability, T/C (compound 0.1 µM): 56.9% [middle of 4 runs]
viability, T/C (compound 0.316 µM): 27.7% [middle of 4 runs]
viability, T/C (compound 1 µM): 31.8% [middle of 4 runs]
viability, T/C (compound 3.16 µM): 28.4% [middle of 4 runs]
viability, T/C (compound 10 µM): 4.66% [middle of 4 runs]

IC50 (curve of first compound, second compound 0.000949 µM): 1.43 µM
IC50 (curve of first compound, second compound 0.003 µM): 1.55 µM
IC50 (curve of first compound, second compound 0.00949 µM): 1.79 µM
IC50 (curve of first compound, second compound 0.03 µM): 1.66 µM
IC50 (curve of first compound, second compound 0.0949 µM): 1.85 µM
IC50 (curve of first compound, second compound 0.3 µM): 1.86 µM
SMILES: CCC(CC)c1cc(NC2CCC(N)C2)n2nccc2n1 (configuration not stated) + CCn1c(-c2cc(N3CCN(C)CC3)cnc2C(C)OC)c2c3cc(ccc31)-c1csc(n1)CC(NC(=O)C1CC1C)C(=O)N1CCCC(N1)C(=O)OCC(C)(C)C2
viability, T/C (second compound 0.000949 µM, first compound 0.0316 µM): 111%
viability, T/C (second compound 0.000949 µM, first compound 0.1 µM): 89.1%
viability, T/C (second compound 0.000949 µM, first compound 0.316 µM): 99.3%
viability, T/C (second compound 0.000949 µM, first compound 1 µM): 71.5%
viability, T/C (second compound 0.000949 µM, first compound 3.16 µM): 1.75%
viability, T/C (second compound 0.000949 µM, first compound 10 µM): 1.38%
viability, T/C (second compound 0.003 µM, first compound 0.0316 µM): 72.2%
viability, T/C (second compound 0.003 µM, first compound 0.1 µM): 98.3%
viability, T/C (second compound 0.003 µM, first compound 0.316 µM): 89.2%
viability, T/C (second compound 0.003 µM, first compound 1 µM): 79.2%
viability, T/C (second compound 0.003 µM, first compound 3.16 µM): 2.05%
viability, T/C (second compound 0.003 µM, first compound 10 µM): 1.33%
viability, T/C (second compound 0.00949 µM, first compound 0.0316 µM): 81.7%
viability, T/C (second compound 0.00949 µM, first compound 0.1 µM): 103%
viability, T/C (second compound 0.00949 µM, first compound 0.316 µM): 81.9%
viability, T/C (second compound 0.00949 µM, first compound 1 µM): 131%
viability, T/C (second compound 0.00949 µM, first compound 3.16 µM): 1.93%
viability, T/C (second compound 0.00949 µM, first compound 10 µM): 1.58%
viability, T/C (second compound 0.03 µM, first compound 0.0316 µM): 72.3%
viability, T/C (second compound 0.03 µM, first compound 0.1 µM): 86.8%
viability, T/C (second compound 0.03 µM, first compound 0.316 µM): 92.5%
viability, T/C (second compound 0.03 µM, first compound 1 µM): 98.9%
viability, T/C (second compound 0.03 µM, first compound 3.16 µM): 1.68%
viability, T/C (second compound 0.03 µM, first compound 10 µM): 2.28%
viability, T/C (second compound 0.0949 µM, first compound 0.0316 µM): 86.2%
viability, T/C (second compound 0.0949 µM, first compound 0.1 µM): 111%
viability, T/C (second compound 0.0949 µM, first compound 0.316 µM): 107%
viability, T/C (second compound 0.0949 µM, first compound 1 µM): 119%
viability, T/C (second compound 0.0949 µM, first compound 3.16 µM): 1.88%
viability, T/C (second compound 0.0949 µM, first compound 10 µM): 1.55%
viability, T/C (second compound 0.3 µM, first compound 0.0316 µM): 75.7%
viability, T/C (second compound 0.3 µM, first compound 0.1 µM): 116%
viability, T/C (second compound 0.3 µM, first compound 0.316 µM): 116%
viability, T/C (second compound 0.3 µM, first compound 1 µM): 117%
viability, T/C (second compound 0.3 µM, first compound 3.16 µM): 2.08%
viability, T/C (second compound 0.3 µM, first compound 10 µM): 1.97%

IC50 (curve of first compound, second compound 0.00316 µM): > 1 µM
IC50 (curve of first compound, second compound 0.01 µM): > 1 µM
IC50 [1]: > 1 µM
IC50 [2]: > 1 µM
IC50 [3]: > 1 µM
IC50 [4]: > 1 µM
SMILES: C=CC(=O)Nc1cc(Nc2nccc(-c3cn(C)c4ccccc34)n2)c(OC)cc1N(C)CCN(C)C + C=CC(=O)N1CCN(c2nc(OCC3CCCN3C)nc3c(F)c(-c4nc(N)cc(C)c4C(F)(F)F)c(Cl)cc23)C(C)C1
viability, T/C (second compound 0.00316 µM, first compound 0.00316 µM): 102%
viability, T/C (second compound 0.00316 µM, first compound 0.01 µM): 105%
viability, T/C (second compound 0.00316 µM, first compound 0.0316 µM): 101%
viability, T/C (second compound 0.00316 µM, first compound 0.1 µM): 104%
viability, T/C (second compound 0.00316 µM, first compound 0.316 µM): 104%
viability, T/C (second compound 0.00316 µM, first compound 1 µM): 71.7%
viability, T/C (second compound 0.01 µM, first compound 0.00316 µM): 95.6%
viability, T/C (second compound 0.01 µM, first compound 0.01 µM): 100%
viability, T/C (second compound 0.01 µM, first compound 0.0316 µM): 85.5%
viability, T/C (second compound 0.01 µM, first compound 0.1 µM): 97.7%
viability, T/C (second compound 0.01 µM, first compound 0.316 µM): 97.9%
viability, T/C (second compound 0.01 µM, first compound 1 µM): 71.8%
viability, T/C (second compound 0.0316 µM, first compound 0.00316 µM): 105%
viability, T/C (second compound 0.0316 µM, first compound 0.01 µM): 102%
viability, T/C [5]: 97.9%
viability, T/C [6]: 98.7%
viability, T/C [7]: 97.3%
viability, T/C [8]: 78.8%
viability, T/C (second compound 0.1 µM, first compound 0.00316 µM): 117%
viability, T/C (second compound 0.1 µM, first compound 0.01 µM): 103%
viability, T/C [9]: 101%
viability, T/C [10]: 97.4%
viability, T/C [11]: 85.4%
viability, T/C [12]: 83.9%
viability, T/C (second compound 0.316 µM, first compound 0.00316 µM): 104%
viability, T/C (second compound 0.316 µM, first compound 0.01 µM): 112%
viability, T/C [13]: 118%
viability, T/C [14]: 98.5%
viability, T/C [15]: 84.6%
viability, T/C [16]: 78.9%
viability, T/C (second compound 1 µM, first compound 0.00316 µM): 102%
viability, T/C (second compound 1 µM, first compound 0.01 µM): 95.5%
viability, T/C [17]: 95.3%
viability, T/C [18]: 100%
viability, T/C [19]: 96%
viability, T/C [20]: 67.6%
